Test results as given in patent US8026218B2, “Bifunctional analgesic compounds for opioid receptor agonists and neurokinin-1 receptor antagonists” (The University of Arizona, priority 2006, dated 2011).
Like-named read-outs stand apart in the source and are kept apart here. Peptide text beside a SMILES is read from it.

Experiments:
[1] = target: T1, rat NK1 (rNK1) receptor (Rattus norvegicus, UniProt P14600); test: Radioligand competition binding, [3H]substance P, rNK1/CHO membranes; conditions: for IC50: LogIC50, rNK1, [3H]Substance P, logarithm of IC50 (negative)
T1 construct: expressed in transfected cells; host or cells: CHO (rNK-1/CHO cell line from Dr. James Krause)
T1 sequence (P14600 whole entry): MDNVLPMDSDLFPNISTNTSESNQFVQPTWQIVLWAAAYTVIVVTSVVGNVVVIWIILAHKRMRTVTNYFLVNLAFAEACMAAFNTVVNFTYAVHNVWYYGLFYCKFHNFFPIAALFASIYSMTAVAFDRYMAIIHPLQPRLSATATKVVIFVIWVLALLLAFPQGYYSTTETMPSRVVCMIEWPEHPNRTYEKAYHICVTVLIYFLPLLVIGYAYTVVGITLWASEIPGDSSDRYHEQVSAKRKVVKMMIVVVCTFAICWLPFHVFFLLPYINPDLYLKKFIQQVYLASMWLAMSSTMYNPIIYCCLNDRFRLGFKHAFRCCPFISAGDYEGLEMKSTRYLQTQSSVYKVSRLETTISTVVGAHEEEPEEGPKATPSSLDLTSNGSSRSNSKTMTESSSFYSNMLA

[2] = Octanol/saline distribution (logD7.4); format: physicochemical; conditions: 0.05 N HEPES buffer in 0.1 N NaCl
Experimental: HEPES buffer (0.05 M HEPES buffer in 0.1 M NaCl, pH 7.4, 500 μL) was added to 2 mg of compound and mixed with 500 μL of 1-octanol. The sample was shaken at r.t. for 12 h to allow equilibrating. The sample was centrifuged at 6500 rpm in a VanGuard V6500 (GlaxoSmithKline, Research Triangle Park, N.C.) for 15 min. The layers were separated and each layer was centrifuged once again. The compound concentrations of obtained layers were analyzed by HPLC (30-70% of acetonitrile containing 0.1% TFA within 20 min and up to 95% within additional 5 min, 1 mL/min, 230 nm, Vydac 218TP104 C-18 column). The logarithm of 1-octanol/saline distribution (logD7.4) was calculated as the ratio of compound concentration in the 1-octanol and saline phases.
Octanol/saline distribution (logD7.4) (Yamamoto, 2007, J. Med. Chem., submitted). HEPES buffer (0.05 M HEPES buffer in 0.1 M NaCl, pH 7.4, 500 μL) was added to 2 mg of compound and mixed with 500 μL of 1-octanol. The sample was shaken at r.t. for 12 h to allow equilibrating. The sample was centrifuged at 6500 rpm in a VanGuard V6500 (GlaxoSmithKline, Research Triangle Park, N.C.) for 15 min. The layers were separated and each layer was centrifuged once again. The compound concentrations in the obtained layers were analyzed by HPLC (30-70% of acetonitrile containing 0.1% TFA within 20 min and up to 95% within additional 5 min, 1 mL/min, 230 nm, Vydac 218TP104 C-18 column). The logarithm of 1-octanol/saline distribution (logD7.4) was calculated as the ratio of compound concentration in the 1-octanol and saline phases.

[3] = target: T2, human NK1 receptor (hNK1) (Homo sapiens, UniProt P25103); test: Radioligand competition binding, [3H]-Substance P, hNK1
T2 construct: expressed in transfected cells
T2 sequence (P25103 whole entry): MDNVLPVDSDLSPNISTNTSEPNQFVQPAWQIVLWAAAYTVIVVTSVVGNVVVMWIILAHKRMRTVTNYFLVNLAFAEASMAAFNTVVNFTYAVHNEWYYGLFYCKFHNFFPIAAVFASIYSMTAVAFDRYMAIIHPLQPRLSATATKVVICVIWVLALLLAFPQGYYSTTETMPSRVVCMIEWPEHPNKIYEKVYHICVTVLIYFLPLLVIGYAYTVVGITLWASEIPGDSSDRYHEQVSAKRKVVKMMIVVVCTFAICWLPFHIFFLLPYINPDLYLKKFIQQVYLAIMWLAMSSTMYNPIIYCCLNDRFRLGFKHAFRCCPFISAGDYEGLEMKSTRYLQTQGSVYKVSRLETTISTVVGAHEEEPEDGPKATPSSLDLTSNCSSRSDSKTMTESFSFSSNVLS

[4] = target: T3, δ opioid receptors (MVD) (Mus musculus, UniProt P32300); test: Mouse isolated vas deferens (MVD) assay, opioid agonist
T3 construct: from tissue; host or cells: mouse (ICR) isolated vas deferens
T3 sequence (P32300 whole entry): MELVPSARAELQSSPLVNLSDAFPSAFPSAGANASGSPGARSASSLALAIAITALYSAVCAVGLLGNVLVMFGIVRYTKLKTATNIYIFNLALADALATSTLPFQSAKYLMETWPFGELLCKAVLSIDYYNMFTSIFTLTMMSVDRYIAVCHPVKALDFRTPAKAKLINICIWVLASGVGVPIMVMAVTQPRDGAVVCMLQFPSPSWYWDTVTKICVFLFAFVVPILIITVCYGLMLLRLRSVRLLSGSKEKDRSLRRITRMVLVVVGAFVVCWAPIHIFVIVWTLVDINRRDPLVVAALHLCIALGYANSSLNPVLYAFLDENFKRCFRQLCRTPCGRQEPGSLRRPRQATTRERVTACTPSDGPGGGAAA

[5] = In vitro stability in rat plasma at 37° C.; format: in vitro ADME; conditions: rat, rat plasma, read-out: half life (T1/2) in rat plasma (converted)
Experimental: The derivative compounds were tested for their metabolite stability. The compounds were incubated in rat plasma at 37° C., and aliquots were withdrawn at various time points and analyzed by HPLC to determine the concentration of remaining compound derivatives (FIGS. 15-16, 36, and 47-48).
In Vitro Stability of compound derivatives in Rat Plasm (Yamamoto, 2007, J. Am. Chem. Soc. submitted). Stock solution of compounds (50 mg/mL in DMSO) were diluted 1000-fold into rat plasma (Lot 24927, Pel-Freez Biologicals, Rogers, Ak.) to result in an incubation concentration of 50 μg/mL. All samples were incubated at 37° C. for 6 h, and 200 μL of aliquots were withdrawn at 1 h, 2 h, 4 h and 6 h. […] The samples were run in triplicate. Discussion.

[6] = target: T4, rat μ opioid receptors (rMOR) (Rattus norvegicus, UniProt P33535); test: Radioligand competition binding, [3H]DAMGO, rMOR membranes
T4 construct: expressed in transfected cells; host or cells: HN9.10 neuroblastoma cell line, pCDNA3, neomycin-selected clones
T4 sequence (P33535 whole entry): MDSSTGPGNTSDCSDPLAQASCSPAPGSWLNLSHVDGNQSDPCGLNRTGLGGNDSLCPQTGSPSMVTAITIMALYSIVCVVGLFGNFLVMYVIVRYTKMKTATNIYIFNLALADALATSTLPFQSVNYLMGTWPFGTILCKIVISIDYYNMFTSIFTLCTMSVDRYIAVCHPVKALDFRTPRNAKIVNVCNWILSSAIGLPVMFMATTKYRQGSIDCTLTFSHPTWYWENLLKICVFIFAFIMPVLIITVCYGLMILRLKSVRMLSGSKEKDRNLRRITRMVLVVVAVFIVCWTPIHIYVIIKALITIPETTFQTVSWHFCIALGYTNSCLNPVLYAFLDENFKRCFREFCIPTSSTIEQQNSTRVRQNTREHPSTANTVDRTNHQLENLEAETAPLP

[7] = target: T5, human δ opioid receptors (hDOR) (Homo sapiens, UniProt P41143); test: [35S]GTP-γ-S binding assay, hDOR; format: biochemical
T5 construct: expressed in transfected cells; host or cells: HN9.10 neuroblastoma cell line, pCDNA3, neomycin-selected clones
T5 sequence (P41143 whole entry): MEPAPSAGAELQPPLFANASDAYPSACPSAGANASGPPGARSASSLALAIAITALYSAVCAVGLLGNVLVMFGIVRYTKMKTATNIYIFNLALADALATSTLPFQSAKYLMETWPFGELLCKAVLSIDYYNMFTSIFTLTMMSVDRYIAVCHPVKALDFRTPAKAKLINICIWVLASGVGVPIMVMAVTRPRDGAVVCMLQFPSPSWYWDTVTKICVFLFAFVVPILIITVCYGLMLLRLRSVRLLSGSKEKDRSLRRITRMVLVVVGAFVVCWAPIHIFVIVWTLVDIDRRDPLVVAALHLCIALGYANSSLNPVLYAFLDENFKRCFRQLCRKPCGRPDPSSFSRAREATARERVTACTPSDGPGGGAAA

[8] = target: T5, human δ opioid receptors (hDOR); test: Radioligand competition binding, [3H]DPDPE, hDOR membranes
[9] = target: T4, rat μ opioid receptors (rMOR); test: biochemical; format: biochemical
[10] = tested on: μ opioid receptors (GPI); test: Guinea pig isolated ileum (GPI) assay, opioid agonist;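 also: inhibition of electrically evoked contractions (0.1 Hz, 0.4 msec, supramaximal voltage) in organ baths at 37 °C, contraction height 3 min after each cumulative dose versus the 1 min before dosing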
[11] = target: T6, Substance P receptors (guinea pig NK1) (Cavia porcellus, UniProt P30547); test: Guinea pig isolated ileum (GPI) assay with substance P stimulation in presence of 1 μM naloxone
T6 construct: from tissue; host or cells: guinea pig (Hartley) ileum LMMP, 1 μM naloxone present
T6 sequence (P30547 whole entry): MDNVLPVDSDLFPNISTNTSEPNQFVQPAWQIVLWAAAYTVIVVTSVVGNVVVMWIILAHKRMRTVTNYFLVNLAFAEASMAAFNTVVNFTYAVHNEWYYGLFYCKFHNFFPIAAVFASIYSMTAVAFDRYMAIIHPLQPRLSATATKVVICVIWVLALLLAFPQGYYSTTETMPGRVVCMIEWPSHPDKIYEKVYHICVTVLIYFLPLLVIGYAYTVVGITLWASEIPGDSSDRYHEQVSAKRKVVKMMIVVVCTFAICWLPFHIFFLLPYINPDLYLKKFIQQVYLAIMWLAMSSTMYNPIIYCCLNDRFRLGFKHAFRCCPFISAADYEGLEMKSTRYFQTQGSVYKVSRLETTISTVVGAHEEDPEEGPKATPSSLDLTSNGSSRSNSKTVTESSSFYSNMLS

Structure (SMILES): CC(C)C[C@H](NC(=O)[C@@H]1CCCN1C(=O)[C@H](Cc1ccccc1)NC(=O)CNC(=O)[C@@H](C)NC(=O)[C@@H](N)Cc1ccc(O)cc1)C(=O)N[C@@H](Cc1c[nH]c2ccccc12)C(=O)N(C)Cc1ccccc1 [TY010, H-Tyr-D-Ala-Gly-Phe-Pro-Leu-Trp-NMe-Bzl]
- inhibition at 1 µM ([1]; read-out: Inhibition % at 1 μM, rNK1, [3H]Substance P): 33 ± 7.6%
- logD7.4 [2]: 3.5
- IC50 [3]: 3.16 nM
- Ki [3]: 100 nM
- Ki ([3]; read-out: Ki, hNK1): 1.6 nM

Structure (SMILES): CC(C)C[C@H](NC(=O)[C@@H]1CCCN1C(=O)[C@H](Cc1ccccc1)NC(=O)CNC(=O)[C@@H](C)NC(=O)[C@@H](N)Cc1ccc(O)cc1)C(=O)N[C@@H](Cc1c[nH]c2ccccc12)C(=O)OCc1ccccc1 [TY011, H-Tyr-DAla-Gly-Phe-Pro-Leu-Trp-O-Bzl]
- IC50 ([1]; Table 6, CHO cell membranes): 794 nM
- Ki ([1]; read-out: Ki, rNK1): 270 nM
- logD7.4 [2]: 3.8
- IC50 [3]: 200 nM
- Ki ([3]; read-out: Ki, hNK1): 100 nM

Structure (SMILES): CCCC[C@@H]1NC(=O)[C@H](Cc2ccccc2)NC(=O)CNC(=O)[C@H](NC(=O)[C@@H](N)Cc2ccc(O)cc2)CSSC[C@@H](C(=O)N[C@@H](Cc2c[nH]c3ccccc23)C(=O)NCc2cc(C(F)(F)F)cc(C(F)(F)F)c2)NC(=O)[C@@H]2CCCN2C1=O [TY035, [D-Cys^2, Cys^7]TY027] (HELM PEPTIDE1{Y.[dC].G.F.[Nle].P.C.W.[FC(F)(F)c1cc(CN[*:1])cc(C(F)(F)F)c1]}$PEPTIDE1,PEPTIDE1,2:R3-7:R3$$$V2.0; N-terminus assumed)
- IC50 ([1]; Table 20, CHO cell membranes): 100 nM
- Ki(hNK1)/Ki(rNK1) ([1]; Table 20, species ratio): 30
- Ki ([1]; Table 39, read-out: Affinity rNK1 (Ki; nM)): 30 nM
- Ki ([1]; read-out: Ki (nM), rNK1, [3H]Substance P, Table 20, CHO cell membranes): 30 nM
- IC50 ([4]; Table 22, electrically stimulated isolated tissue, read-out: Opioid agonist MVD (δ), IC50): 85 ± 18 nM
- IC50 ([4]; Table 39, read-out: MVD opioid(delta) agonist (IC50; nM)): 84.7 nM
- half-life at 50 μg/mL [5]: > 6 h
- IC50 [6]: 158 nM
- Ki(μ)/Ki(δ) ([6]; Table 20, ratio rMOR Ki / hDOR Ki): 61
- Ki ([6]; read-out: Ki, rMOR, [3H]DAMGO): 79 nM
- EC50 ([7]; Table 21, HN9.10 cell, read-out: EC50 (nM), hDOR): 0.02 nM
- EC50 ([7]; Table 21, logarithm of EC50 (negative), HN9.10 cell, read-out: LogEC50, hDOR (converted)): 0.0158 nM
- Emax ([7]; Table 21, net total bound/basal binding × 100, read-out: Emax (%), hDOR): 11%
- EC50 ([7]; Table 39, read-out: GTP binding hDOR EC50): 0.02 nM
- Emax ([7]; Table 39, read-out: GTP binding hDOR Emax): 11%
- Emax ([7]; net total bound/basal binding × 100, read-out: Emax, hDOR, [35S]GTP-γ-S binding): < 20%
- IC50 [8]: 2.51 nM
- Ki ([8]; read-out: Ki, hDOR, [3H]DPDPE): 1.3 nM
- EC50 ([9]; LogEC50, rMOR): 39.8 nM
- EC50 ([9]; read-out: EC50 (nM), rMOR): 36 nM
- Emax ([9]; read-out: Emax (%), rMOR): 41%
- EC50 ([9]; read-out: GTP binding rMOR EC50): 36 nM
- Emax ([9]; read-out: GTP binding rMOR Emax): 39%
- IC50 ([10]; Table 22, electrically stimulated isolated tissue, read-out: Opioid agonist GPI (μ), IC50): 1000 ± 200 nM
- IC50 ([10]; Table 39, read-out: GPI/LMMP opioid(mu) agonist (IC50; nM)): 1010 nM
- IC50 [3]: 0.2 nM
- Ki ([3]; read-out: Ki, hNK1): 0.1 nM
- Kb ([11]; Substance P antagonist, GPI, Ke (nM), Table 22, in the presence of 1 μM naloxone): 2.2 ± 0.6 nM
- GPI/LMMP SP Agonist (IC50; nM) ([11]; Table 39, at 30 nM): none
